Tests used:
[1] = test system: Saos-2 cells; type: cell-based, human
Experimental: Saos-2 cells were purchased from ATCC. Cells were maintained in McCoy 5A medium supplemented with 15% FBS, penicillin/streptomycin, non-essential amino acids, Hepes and L-glutamine. To induce mineralization, cells were treated with mineralization activation cocktail (MAC), consisting of 5 mM b-glycerophosphate, […] ascorbic acid and 10 nM dexamethasone. Uro-I solution preparation and treatment of zebrafish larvae and Saos-2 cells
(§1) Saos-2 cells were plated in 12-well plates (1.5×10^5 cells/well) and allowed to attach overnight. Cells were then treated with Uro-I ([…] final concentration) or vehicle in medium containing MAC for 3 days. Experiments were conducted in a dark room and cells were kept shielded from light in a tissue culture incubator.
Etretinate (Selleck Chemicals, Houston, TX) and tretinoin (Selleck Chemicals, Houston, TX) treatment was performed as described for acitretin. In addition to being used as prophylaxis, the therapeutic effect of acitretin was evaluated. […] Porphyrin binding, excretion and bone volume were analyzed. […]
Cell mineralization was quantified by ARS (Sigma Aldrich St. Louis, MO) staining as described previously (Harper, E. et al. PLoS One 12, e0188192, doi:10.1371/journal.pone.0188192 (2017)), with minor modifications. […] ARS standard curve (from 2-0.02 mM) and samples were transferred in triplicate to a 96-well plate and absorbance was measured at 405 nm.

[2] = test system: Saos-2 cells; type: cell-based, human; remark: listed apart in the source
Experimental: as §1
(§2) Etretinate (Selleck Chemicals, Houston, TX) and tretinoin (Selleck Chemicals, Houston, TX) treatment was performed as described for acitretin. In addition to being used as prophylaxis, the therapeutic effect of acitretin was evaluated. Six dpf AB×TL zebrafish larvae were injected with Uro-I and 24 hours later they were transferred to E3 medium containing […] acitretin or DMSO. Porphyrin binding, excretion and bone volume were analyzed. Saos-2 cells were treated with […] acitretin or DMSO in medium containing MAC and Uro-I.
Saos-2 cells RNA was extracted using RNeasy mini kit (Qiagen, Catalog #: 74104). and gene expression was carried using the RT^2 Profiler PCR Array for human cellular stress responses (Qiagen, Catalog #: PAHS-019ZA) following manufacturer's instructions. A previously described qPCR (Elenbaas, J. S. et al. Gastroenterology 154, 1625-1629 e1628, doi:10.1053/j.gastro.2018.01.024 (2018)) was performed for COL1A1 and SERPINH1 (IDT Integrated DNA Technologies, PrimeTime assay ID Hs.PT.58.15517795 and Hs.PT.56a.26865778, respectively).

[3] = test system: zebrafish larvae; settings: in vivo
Experimental: Uro-I (uroporphyrin-I dihydrochloride; Frontier Scientific, Catalog #: U830-1) was initially resuspended in 0.1M NaOH and the pH was adjusted to neutral using 0.2 M Na2HPO4. Six days post fertilization (dpf), ABTL zebrafish larvae were injected via the retro-orbital route with approximately 3 nL of 7.2 mM Uro-I solution and control larvae were injected with vehicle (0.1M NaOH in 0.2M Na2HPO4). After injection, larvae were immediately transferred to Petri dishes wrapped with heavy duty aluminum foil and kept in a dark incubator, at 28.5° C., for 24 h. Where indicated, 7 dpf larvae were injected with approximately 2 nL of 0.2% w/v calcein (Sigma, Catalog #: C0875) 2 h prior to imaging.
Seven dpf AB×TL zebrafish larvae were anesthetized with tricaine-S (Syndel) and immobilized in 0.5% low melt agarose. Fluorescent z-series were captured using an Olympus FV500 confocal microscope (10× objective, confocal aperture of 300 mm) with an optical thickness of 10 mm and z-step size of 10 mm. Calcein was excited with a 488 nm argon laser and emission was captured between 505 and 525 nm. Porphyrin was excited with a 405 nm laser diode and emission was captured above 560 nm. Three-dimensional image reconstruction and quantification of fluorescent signal and bone volume were performed using Imaris 3D visualization and analysis software v7.7 (Bitplane).

[4] = test system: uro-I injected zebrafish larvae; assay: Zebrafish CEP model, prophylaxis protocol (retinoid co-administered with uro-I injection); type: in vivo, Zebrafish (Danio rerio); settings: 24 hours, vs DMSO; for porphyrin fluorescence in bones (operculum and vertebrae): 10 μM in E3 medium
Experimental: Techniques that can be used to perform the methods of the invention are described by Elenbaas, J. S., et al., FASEB, 2016, 30, 1798-1810; and Cunha, J. B., Scientific Reports, 2021, 11, 9601.
Validation and characterization of acitretin as a potential treatment for CEP was performed. Six dpf ABTL zebrafish larvae injected with uro-I were immediately transferred to 10 cm plastic dishes containing 10 μM acitretin or DMSO in E3 medium (prophylaxis protocol FIG. 2A) and incubated for 24 hours in the dark at 28.5° C. Porphyrin binding to bones and bone volume were analyzed by confocal microscopy as described above. Porphyrin excretion into the medium was quantified. Uro-I-injected larvae were transferred to 96-well plates, one larva/well, […] of […] acitretin or DMSO/well. Medium was collected after 24 hours and porphyrin was quantified as described previously.
as §2

[5] = test system: uro-I injected zebrafish larvae; assay: Zebrafish CEP model, therapeutic protocol (acitretin 24 hours after uro-I injection); type: in vivo, Zebrafish (Danio rerio); settings: acitretin from 24 hours after uro-I, further 24 hours
Experimental: as §2

[6] = test system: uro-I injected zebrafish larvae; assay: High throughput drug screening (Prestwick library) in zebrafish CEP model; type: in vivo, Zebrafish (Danio rerio); settings: 24 h, visual analysis vs DMSO-treated larvae, drug tested individually
Experimental: Unbiased high throughput drug screening was performed using the Prestwick library (Prestwick Chemical), which consists of 1,280 small molecules chosen by the manufacturer for their bioavailability and safety. […] Zebrafish E3 medium ([…]) was transferred to a 96-well half area imaging plate (Corning, cat. n. 3880) using a Multidrop dispenser (ThermoFisher Scientific). Compounds ([…] of 2 mM stock) were added to the wells using a multichannel plate handling robot (Biomek FX, Beckman Coulter Life Sciences). […] Control wells contained […] of DMSO.
Six dpf NHGRI-1 zebrafish larvae were injected retro-orbitally with approximately 2 nL of a solution of Uro-I (10 mM) and calcein (0.2% w/v). Immediately after injection, larvae were transferred to a 96-well test plate (two larvae in […] of E3 medium/well), including the DMSO control wells. Control larvae injected with the drug vehicle (dimethyl sulfoxide, DMSO) and calcein were transferred to E3 medium-only containing wells. Larvae were kept in the dark, at 28.5° C. After 24 h, they were anesthetized with tricaine-S, centrifuged at 500×g for two minutes and imaged using the ImageXpress Micro Cellular Imaging and Analysis System (Molecular Devices). Positive hits were selected based on visual identification of calcein signal increase and porphyrin signal decrease compared to DMSO-treated larvae. […]

[7] = test system: zebrafish larvae; assay: Acitretin dose-response curve, toxicity to zebrafish larvae; type: in vivo, Zebrafish (Danio rerio); settings: dose-response 0.5-12.5 mM
[8] = test system: Saos-2 cells; assay: Saos-2 immunoblotting of ER stress (BiP) and autophagy (LC3-II) markers; type: cell-based, human; settings: acitretin with MAC and Uro-I, vs DMSO
Experimental: as §1, §2
Saos-2 cells were lysed in ice cold RIPA buffer (Sigma Aldrich, St. Louis, MO) with protease inhibitor cocktail (Thermo Scientific, Waltham, MA) and scraped. Whole cell lysate was kept in the dark until reducing SDS-PAGE sample buffer was added. Immunoblotting, band densitometry and mass spectrometry were conducted as described previously (Maitra, D. et al. Cell Mol Gastroenterol Hepatol 8, 659-682 e651, doi:10.1016/j.jcmgh.2019.05.010 (2019); and Maitra, D. et al. J Biol Chem 290, 23711-23724, doi:10.1074/jbc.M114.636001 (2015)). […]

[9] = acitretin in uro-I treated cells

Cl.Cl.O=C(O)CCC1=C(CC(=O)O)c2cc3nc(cc4[nH]c(cc5[nH]c(cc1n2)c(CC(=O)O)c5CCC(=O)O)c(CC(=O)O)c4CCC(=O)O)C(CC(=O)O)=C3CCC(=O)O [Uro-I, uroporphyrin-I dihydrochloride]
mineralization (ARS staining) [1]: decreased significantly
HSPA5 expression increase [2]: 2.1 ×
SERPINH1 expression decrease [2]: 3.3 ×
SOD3 expression increase [2]: 2.8 ×
reduction in COL1A1 expression [2]: 90%
operculum and 4th vertebra volume [3]: significantly decreased

COc1cc(C)c(/C=C/C(C)=C/C=C/C(C)=C/C(=O)O)c(C)c1C [acitretin]
porphyrin fluorescence in bones (operculum and vertebrae) [4]: significantly reduced
operculum volume (bone volume) [4]: no effect
uro-I excretion into the medium [4]: increased
bone porphyrin fluorescence [5]: did not decrease
operculum volume [5]: increased
uro-I excretion to the medium [5]: increased
uro-I accumulation in bones (screening hit) [6]: decreased uro-I accumulation in bones
toxicity to zebrafish larvae [7]: without being toxic
uro-I-mediated loss of mineralization (ARS staining) ([1]; 10 mM acitretin in medium containing MAC and Uro-I): did not prevent
BiP level (ER stress response) [8]: reducing BiP level
LC3-II (autophagic flux) [8]: reducing LC3-II
SOD3 downregulation [2, 9]: 3.8 fold
Upregulation of COL1A1 [2, 9]: 1.7 ×
Upregulation of SERPINH1 [2, 9]: 5.4 ×

CCOC(=O)/C=C(C)/C=C/C=C(C)/C=C/c1c(C)cc(OC)c(C)c1C [etretinate]
porphyrin fluorescence in bones (operculum and vertebrae) [4]: did not demonstrate significant activity

CC1=C(/C=C/C(C)=C/C=C/C(C)=C/C(=O)O)C(C)(C)CCC1 [tretinoin, all trans-retinoic acid]
porphyrin fluorescence in bones (operculum and vertebrae) [4]: significantly reduced
operculum volume (bone volume) [4]: did not prevent loss in bone volume

Reference: patent US20240148684A1, “COMPOUNDS AND METHODS FOR TREATING CONGENITAL ERYTHROPOIETIC PORPHYRIA” (RUTGERS, THE STATE UNIVERSITY OF NEW JERSEY, priority 2021, published 2024)
